Laboratory results from ChEMBL document CHEMBL5625245, “Novel ProTide prodrugs of 5-fluoro-2'-deoxyuridine for the treatment of liver cancer” (Eur J Med Chem, 2023).
The source made the active and inactive calls. No cut-off for these calls is given here.

Experiments:
Bel-7402 [1] = assay: Antiproliferative activity against human Bel-7402 cells assessed as reduction in cell viability measured after 48 to 72 hrs by MTT assay; assay type: functional, cell-based
[2] = Antiproliferative activity against human NCM460 cells assessed as reduction in cell viability measured after 48 to 72 hrs by MTT assay; assay type: toxicity, cell-based
Bel-7402 [3] = assay: Antiproliferative activity against human Bel-7402 cells assessed as reduction in cell viability at 20 uM measured after 48 hrs by MTT assay relative to control; assay type: functional
HepG2 [4] = assay: Antiproliferative activity against human HepG2 cells assessed as reduction in cell viability measured after 48 to 72 hrs by MTT assay; assay type: functional, cell-based
[5] = Antiproliferative activity against human L02 cells assessed as reduction in cell viability measured after 48 to 72 hrs by MTT assay; assay type: toxicity, cell-based
Bel-7402 [6] = assay: Antiproliferative activity against human Bel-7402 cells assessed as reduction in cell viability at 20 uM measured after 48 hrs by MTT assay; assay type: functional, cell-based
HepG2 [7] = assay: Antiproliferative activity against human HepG2 cells assessed as reduction in cell viability at 20 uM measured after 48 hrs by MTT assay relative to control; assay type: functional
HepG2 [8] = assay: Antitumor activity against human HepG2 cells xenografted in orthotopic mouse model assessed as average number of tumor at 60 mg/kg, iv administered twice daily for 18 days in presence of 5-Fluorouracil (reference value: 49+/3.6 mM); assay type: functional; settings: time 18 day
[9] = Toxicity in orthotopic mouse assessed as effect on liver at 60 mg/kg, iv administered twice daily for 18 days by H and E staining based analysis; assay type: organism-based; settings: in vivo, 432 h, time 18 day
HepG2 [10] = assay: Antitumor activity against human HepG2 cells xenografted in mouse model assessed as tumor growth inhibition at 100 mg/kg/day for 7 days relative to control; assay type: functional; settings: HepG2, 168 h, time 7 day, read-out: TGI
[11] = Toxicity in orthotopic mouse assessed as change in liver weight at 60 mg/kg, iv administered twice daily for 18 days; assay type: organism-based; settings: in vivo, 432 h, time 18 day
HepG2 [12] = assay: Antiproliferative activity against human HepG2 cells assessed as reduction in cell viability at 20 uM measured after 48 to 72 hrs in presence of 5-Fluorouracil by MTT assay; assay type: functional, cell-based; settings: time 48-72 hrs
HepG2 [13] = assay: Antitumor activity against human HepG2 cells xenografted in mouse model assessed as tumor growth inhibition at 150 mg/kg/day for 7 days relative to control; assay type: functional; settings: HepG2, 168 h, time 7 day, read-out: TGI
[14] = Toxicity in orthotopic mouse assessed as effect on body weight at 60 mg/kg, iv administered twice daily for 18 days; assay type: organism-based; settings: in vivo, 432 h, time 18 day
[15] = Toxicity in orthotopic mouse assessed as effect on spleen at 60 mg/kg, iv administered twice daily for 18 days by H and E staining based analysis; assay type: organism-based; settings: in vivo, 432 h, time 18 day
[16] = Toxicity in orthotopic mouse assessed as effect on lung at 60 mg/kg, iv administered twice daily for 18 days by H and E staining based analysis; assay type: organism-based; settings: in vivo, 432 h, time 18 day
Bel-7402 [17] = assay: Antiproliferative activity against human Bel-7402 cells assessed as reduction in cell viability at 20 uM measured after 48 to 72 hrs in presence of 5-Fluorouracil by MTT assay; assay type: functional, cell-based; settings: time 48-72 hrs
[18] = Toxicity in orthotopic mouse assessed as effect on drug tolerance at 60 mg/kg, iv administered twice daily for 18 days; assay type: organism-based; settings: in vivo, 432 h, time 18 day
HepG2 [19] = assay: Antitumor activity against human HepG2 cells xenografted in orthotopic mouse model assessed as tumor growth inhibition at 60 mg/kg, iv administered twice daily for 18 days in presence of 5-Fluorouracil relative to control; assay type: functional; settings: HepG2, 432 h, time 18 day, read-out: TGI
[20] = Toxicity in orthotopic mouse assessed as effect on heart at 60 mg/kg, iv administered twice daily for 18 days by H and E staining based analysis; assay type: organism-based; settings: in vivo, 432 h, time 18 day
[21] = Toxicity in orthotopic mouse assessed as effect on kidney at 60 mg/kg, iv administered twice daily for 18 days by H and E staining based analysis; assay type: organism-based; settings: in vivo, 432 h, time 18 day

Compound	IC50 (Bel-7402 [1])	IC50 [2]	Activity (Bel-7402 [3])	IC50 (HepG2 [4])	IC50 [5]	Activity (HepG2 [7])	further results
CC(C)OC(=O)[C@H](C)N[P@](=O)(OC[C@H]1O[C@@H](n2cc(F)c(=O)[nH]c2=O)C[C@@H]1OC(=O)[C@H](Cc1ccccc1)NC(=O)OC(C)(C)C)Oc1ccccc1	7.18 µM	> 100 µM	>60%	28.7 µM	> 100 µM	–	–
CC(C)OC(=O)[C@H](C)N[P@](=O)(OC[C@H]1O[C@@H](n2cc(F)c(=O)[nH]c2=O)C[C@@H]1OC(=O)CN)Oc1ccccc1	–	–	–	–	–	–	Activity (Bel-7402 [6]): Active
CC(C)C[C@H](N)C(=O)NCC(=O)O[C@H]1C[C@H](n2cc(F)c(=O)[nH]c2=O)O[C@@H]1CO[P@@](=O)(N[C@@H](C)C(=O)OC(C)C)Oc1ccccc1	–	–	50%	–	–	50%	–
CC(C)OC(=O)[C@H](C)N[P@](=O)(OC[C@H]1O[C@@H](n2cc(F)c(=O)[nH]c2=O)C[C@@H]1OC(=O)[C@H](C)N)Oc1ccccc1	–	–	–	–	–	–	Activity (Bel-7402 [6]): Active
CC(C)C[C@H](NC(=O)OC(C)(C)C)C(=O)O[C@H]1C[C@H](n2cc(F)c(=O)[nH]c2=O)O[C@@H]1CO[P@@](=O)(N[C@@H](C)C(=O)OC(C)C)Oc1ccccc1	9.68 µM	> 100 µM	>60%	21.2 µM	> 100 µM	–	–
CC(C)OC(=O)[C@H](C)N[P@](=O)(OC[C@H]1O[C@@H](n2cc(F)c(=O)[nH]c2=O)C[C@@H]1OC(=O)[C@H](CC(=O)OC(C)(C)C)NC(=O)OC(C)(C)C)Oc1ccccc1	3.77 µM	> 100 µM	>60%	19.9 µM	> 100 µM	–	–
CC(C)OC(=O)[C@H](C)N[P@](=O)(OC[C@H]1O[C@@H](n2cc(F)c(=O)[nH]c2=O)C[C@@H]1OC(=O)OC(C)(C)C)Oc1ccccc1	–	–	50%	–	–	50%	–
CCC(C)[C@H](N)C(=O)O[C@H]1C[C@H](n2cc(F)c(=O)[nH]c2=O)O[C@@H]1CO[P@@](=O)(N[C@@H](C)C(=O)OC(C)C)Oc1ccccc1 (some centres undefined)	9.11 µM	> 100 µM	–	15.2 µM	> 100 µM	>50%	Activity (Bel-7402 [6]): Active
CC(C)OC(=O)[C@H](C)N[P@](=O)(OC[C@H]1O[C@@H](n2cc(F)c(=O)[nH]c2=O)C[C@@H]1OC(=O)[C@H](Cc1ccccc1)NC(=O)[C@@H](NC(=O)OC(C)(C)C)C(C)C)Oc1ccccc1	13.2 µM	> 100 µM	–	34.1 µM	> 100 µM	–	–
CCC(C)[C@H](NC(=O)OC(C)(C)C)C(=O)O[C@H]1C[C@H](n2cc(F)c(=O)[nH]c2=O)O[C@@H]1CO[P@@](=O)(N[C@@H](C)C(=O)OC(C)C)Oc1ccccc1 (some centres undefined)	8.99 µM	> 100 µM	>60%	48.7 µM	> 100 µM	–	–
CC(C)C[C@H](NC(=O)CN)C(=O)O[C@H]1C[C@H](n2cc(F)c(=O)[nH]c2=O)O[C@@H]1CO[P@@](=O)(N[C@@H](C)C(=O)OC(C)C)Oc1ccccc1	–	–	50%	–	–	50%	–
CC(C)OC(=O)[C@H](C)N[P@](=O)(OC[C@H]1O[C@@H](n2cc(F)c(=O)[nH]c2=O)C[C@@H]1OC(=O)[C@@H](N)CC(=O)O)Oc1ccccc1	–	–	–	–	–	–	Activity (Bel-7402 [6]): Active
CC(C)OC(=O)[C@H](C)N[P@](=O)(OC[C@H]1O[C@@H](n2cc(F)c(=O)[nH]c2=O)C[C@@H]1OC(=O)[C@@H](N)Cc1ccccc1)Oc1ccccc1	–	–	–	–	–	–	Activity (Bel-7402 [6]): Active
Cc1ccccc1CO[P@](=O)(N[C@@H](C)C(=O)OC(C)C)OC[C@H]1O[C@@H](n2cc(F)c(=O)[nH]c2=O)C[C@@H]1O	0.73 µM	> 100 µM	–	0.59 µM	> 100 µM	–	–
CC(C)C[C@H](NC(=O)CNC(=O)OC(C)(C)C)C(=O)O[C@H]1C[C@H](n2cc(F)c(=O)[nH]c2=O)O[C@@H]1CO[P@@](=O)(N[C@@H](C)C(=O)OC(C)C)Oc1ccccc1	–	–	–	–	–	>50%	–
C[C@H](N[P@](=O)(OC[C@H]1O[C@@H](n2cc(F)c(=O)[nH]c2=O)C[C@@H]1O)Oc1cccc2ccccc12)C(=O)OCc1ccccc1	> 100 µM	> 100 µM	<10%	> 100 µM	> 100 µM	<10%	–
CC(C)C[C@H](N)C(=O)O[C@H]1C[C@H](n2cc(F)c(=O)[nH]c2=O)O[C@@H]1CO[P@@](=O)(N[C@@H](C)C(=O)OC(C)C)Oc1ccccc1	–	–	–	–	–	–	Activity (Bel-7402 [6]): Active
CC(C)OC(=O)[C@H](C)N[P@](=O)(OC[C@H]1O[C@@H](n2cc(F)c(=O)[nH]c2=O)C[C@@H]1OC(=O)[C@H](Cc1ccccc1)NC(=O)[C@@H](N)C(C)C)Oc1ccccc1	–	–	50%	–	–	50%	–
CC(C)OC(=O)[C@H](C)N[P@](=O)(OC[C@H]1O[C@@H](n2cc(F)c(=O)[nH]c2=O)C[C@@H]1OC(=O)[C@H](C)NC(=O)CNC(=O)OC(C)(C)C)Oc1ccccc1	–	–	50%	–	–	50%	–
CC(C)OC(=O)[C@H](C)N[P@](=O)(OC[C@H]1O[C@@H](n2cc(F)c(=O)[nH]c2=O)C[C@@H]1OC(=O)[C@H](C)NC(=O)CN)Oc1ccccc1	–	–	50%	–	–	50%	–
CC(C)C[C@H](NC(=O)OC(C)(C)C)C(=O)NCC(=O)O[C@H]1C[C@H](n2cc(F)c(=O)[nH]c2=O)O[C@@H]1CO[P@@](=O)(N[C@@H](C)C(=O)OC(C)C)Oc1ccccc1	–	–	50%	–	–	50%	–
CC(C)OC(=O)[C@H](C)N[P@](=O)(OC[C@H]1O[C@@H](n2cc(F)c(=O)[nH]c2=O)C[C@@H]1OC(=O)CNC(=O)OC(C)(C)C)Oc1ccccc1	10.1 µM	> 100 µM	>60%	17.5 µM	> 100 µM	>50%	–
CC(C)OC(=O)[C@H](C)N[P@](=O)(OC[C@H]1O[C@@H](n2cc(F)c(=O)[nH]c2=O)C[C@@H]1O)Oc1ccccc1	18.2 µM	> 100 µM	–	36.2 µM	> 100 µM	–	tumour count (HepG2 [8]): 21; Activity [9]: Non-Toxic; inhibition in vivo at 100 mg/kg/day (HepG2 [10]): 52%; Activity [11]: Toxic; Activity (HepG2 [12]): Active; inhibition in vivo at 150 mg/kg/day (HepG2 [13]): 68%; Activity [14]: Non-Toxic; Activity [15]: Non-Toxic; Activity [16]: Non-Toxic; Activity (Bel-7402 [17]): Active; Activity [18]: Non-Toxic; inhibition in vivo at 60 mg/kg (HepG2 [19]): 57.1%; Activity [20]: Non-Toxic; Activity [21]: Non-Toxic
